Data from publication PMC10102062, “Effects of DPTQ, a novel positive allosteric modulator of the dopamine D1 receptor, on spontaneous eye blink rate and spatial working memory in the nonhuman primate” (Psychopharmacology, 2023).

Assays:
[1] = biological target: T1, rhesus monkey D1 receptor (Macaca mulatta, UniProt O77680); experiment: cAMP assay: potentiation of EC20 dopamine in transiently transfected HEK293 cells; assay type: cell-based; conditions: rhesus D1, HEK293 transient, n = 4
T1 construct: expressed in transfected cells; host or cells: HEK293 (transient, Jump-In vector)
Description: (§1) The human, rhesus monkey, dog, or mouse D1 receptor was cloned into the Jump-In vector system (Life Technologies Corp, CA) and transiently transfected into HEK293 cells. Increases in cAMP by DPTQ (free base, Eli Lilly) were measured in the presence of an EC20 concentration of dopamine. The EC50 values for each species along with % max stimulation (where dopamine max stimulation equals 100%) are presented in Table 1. These in vitro studies were performed at Eli Lilly and Company, Indianapolis, in USA. For further details on the measurement of effects on cAMP accumulation in these transiently transfected cells, see Hao et al. ([2019]).

human D1 receptor = biological target: T2, human D1 receptor (Homo sapiens, UniProt P21728); experiment: as above; assay type: cell-based; conditions: human D1, HEK293 transient, n = 4
T2 construct: expressed in transfected cells; host or cells: HEK293 (transient, Jump-In vector)
Description: as §1

mouse D1 receptor = biological target: T3, mouse D1 receptor (Mus musculus, UniProt Q61616); experiment: as above; assay type: cell-based; conditions: mouse D1, HEK293 transient, n = 4
T3 construct: expressed in transfected cells; host or cells: HEK293 (transient, Jump-In vector)
Description: as §1

dog D1 receptor = experiment: as above; assay type: cell-based; conditions: dog D1, HEK293 transient, n = 4
Description: as §1

[2] = set-up: method as in Hao et al. [2019]; conditions: after systemic dosing; ref Hao et al. [2019]; cited from earlier work
[3] = Brain penetration, unbound brain/plasma ratio and unbound ligand fraction; conditions: J. Cramer, unpublished data
[4] = Plasma ligand exposure after IM injection (LC/MS) and projected brain concentrations; assay type: in vivo, macaque monkeys
Description: Plasma samples were collected in EDTA tubes at 0, 0.25, 0.50, 1, 2, 4, 8, 12, and 24 h after a bolus IM injection and stored at − 70C until further analysis by LC/MS (for further details see Hao et al. [2019]). For the lower dose of 0.1 mg/kg, IM, plasma samples were collected from three of the animals participating in the spatial working memory task at Yale University, at approximately 1.5 h after dosing (~ 30 min after completion of behavioral test session). Animals were acclimated to sitting freely in a customized chair and having one leg held for hair trimming (if necessary), wiping with 70% alcohol, and saphenous venopuncture using a BD Vacutainer tube inside a safety holder. For the 5 mg/kg, IM dose, plasma samples were collected in a separate study in three male adult macaque monkeys at Eli Lilly and Company, Indianapolis, IN. The collection and storage of samples followed the procedure described above, and analysis of D1 ligand levels was carried out at Eli Lilly and Company, Indianapolis, IN, USA, using liquid chromatography and tandem mass spectrometry.

human D1 = test system: human D1; set-up: method as in Hao et al. [2019]; conditions: stably transfected human D1 cloned cells; ref Hao et al. [2019]; read-out: EC50 for potentiation of the dopamine-induced increase in cAMP; cited from earlier work

T2 sequence (P21728 whole entry): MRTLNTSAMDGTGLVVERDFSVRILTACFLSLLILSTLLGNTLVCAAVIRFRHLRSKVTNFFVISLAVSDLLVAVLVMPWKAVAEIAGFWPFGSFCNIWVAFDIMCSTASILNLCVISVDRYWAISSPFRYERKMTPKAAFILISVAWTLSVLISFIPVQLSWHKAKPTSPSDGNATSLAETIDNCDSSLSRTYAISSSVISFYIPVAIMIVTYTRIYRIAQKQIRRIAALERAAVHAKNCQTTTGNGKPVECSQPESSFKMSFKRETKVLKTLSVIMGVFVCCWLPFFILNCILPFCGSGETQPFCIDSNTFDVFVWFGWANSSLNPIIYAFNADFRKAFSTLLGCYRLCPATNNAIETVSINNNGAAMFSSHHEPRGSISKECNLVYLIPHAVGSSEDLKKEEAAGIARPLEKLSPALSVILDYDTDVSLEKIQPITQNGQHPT
T1 sequence (O77680 whole entry): as the sequence (P21728 whole entry) above, with N311I counted along it
T3 sequence (Q61616 whole entry): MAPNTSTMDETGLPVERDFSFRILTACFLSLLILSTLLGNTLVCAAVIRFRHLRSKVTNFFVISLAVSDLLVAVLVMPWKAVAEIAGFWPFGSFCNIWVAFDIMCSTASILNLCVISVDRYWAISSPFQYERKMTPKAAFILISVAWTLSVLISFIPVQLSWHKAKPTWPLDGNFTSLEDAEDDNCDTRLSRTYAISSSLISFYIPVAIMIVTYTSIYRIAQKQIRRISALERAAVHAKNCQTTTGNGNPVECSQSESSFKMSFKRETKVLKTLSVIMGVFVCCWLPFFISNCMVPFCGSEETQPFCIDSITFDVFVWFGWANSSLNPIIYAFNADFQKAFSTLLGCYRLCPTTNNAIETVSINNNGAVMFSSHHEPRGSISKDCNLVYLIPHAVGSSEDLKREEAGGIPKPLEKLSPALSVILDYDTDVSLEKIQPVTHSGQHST

SMILES: C[C@H]1c2cccc(CC(C)(C)O)c2C[C@H](CO)N1C(=O)Cc1c(Cl)cccc1Cl [DPTQ]
- EC50 [1]: 38 nM
- Max stimulation (% of max DA) [1]: 82 % of max DA
- EC50 (human D1 receptor): 22.9 nM
- Max stimulation (% of max DA) (human D1 receptor): 77 % of max DA
- EC50 (mouse D1 receptor): 534 nM
- Max stimulation (% of max DA) (mouse D1 receptor): 41 % of max DA
- EC50 (dog D1 receptor): 21.5 nM
- Max stimulation (% of max DA) (dog D1 receptor): 88 % of max DA
- Brain penetration [2]: acceptable brain penetration
- Unbound brain vs unbound plasma concentration ratio [3]: about 0.3
- Unbound ligand fraction [3]: 0.068
- Estimated unbound ligand concentrations in the brain ([4]; 0.1 mg/kg IM, 1.5 h after dosing): 1 to 2 nM
- Projected unbound brain concentration as multiple of cAMP EC50 ([4]; 5 mg/kg IM, 2 h post dosing, hD1 and monkey D1 cAMP assay): eightfold down to onefold
- Plasma levels at 0.1 mg/kg IM relative to 5 mg/kg IM (times lower) ([4]; 0.1 vs 5 mg/kg IM): about 50 ×
- Plasma concentrations at late time points ([4]; after 12 or 24 h): negligible
- EC50 (human D1): 76 nM
